Experimental findings from patent publication US7026343B2, “Pharmacologic inhibition of Myc function” (University of Pittsburgh - of the Commonwealth System of …, priority 2002, dated 2006) are described below.

Test [1] concerns Rat1a-c-Myc cells. Description: Cell cycle profiles by propidium iodide flow cytometry. Format: cell-based, rat. The following applies: 24 h, concentrations of FIG. 4. The procedure: This assay was performed as previously described (Nesbit C. E., Grove L. E., Yin X. Y. and Prochownik E. V. (1998), Cell Growth Differ., 9:731–741; Nesbit C. E., Tersak J. M., Grove L. E., Drzal A., Choi H. and Prochownik E. V. (2000), Oncogene, 19:3200–3212; and Yin X. Y., Grove L., Datta N., Katula K., Long M. W. and Prochownik E. V. (2001), Cancer Res., 61:6487–6493). Cell cycle profiles were performed on propidium iodide-stained nuclei as previously described (Yin et al., (1999a)) using a Becton-Dickinson FACStar flow cytometer. A total of 2×10^4 cells were analyzed in triplicate for each point and quantitation was performed using single histogram statistics.
In contrast to c-Myc's promotion of cell cycle progression, its inhibition halts this process and results in an accumulation of cells in G0/G1 (Freytag S. O. (1988), Mol. Cell. Biol., 8:1614–1624; Prochownik et al., 1988 and deAlboran et al., 2001). Therefore, it was asked whether any of the above compounds could affect the cell cycle profiles of otherwise actively proliferating cells. Rat1a-c-Myc cells were plated at low concentrations and grown for 2 additional days until attaining approximately 30% confluency. The cells were then re-fed with fresh medium alone, medium containing DMSO only, or medium containing each of the Myc-Max-specific compounds. After 24 h, cells were harvested and cell cycle profiles were generated by flow cytometry following propidium iodide staining (Yin et al., 2001). […] In contrast, all of the compounds tested caused significant increases in the fraction of the G0/G1 population.

Test [2] deals with Rat1a-c-Myc cells. Kind of test: In vivo tumor growth of pre-treated Rat1a-c-Myc cells in nude mice. To be noted: cells exposed 3 days to compound, then inoculated subcutaneously; no further compound. How it is done:
All growth curves were performed in 12-well tissue culture plates as previously described (Yin et al., (1999b)). Rat1a-neo, Rat1a-c-Myc, and TGR-1 fibroblasts were seeded at an initial density of 2×10^3 cells/well whereas HO15.19 c-Myc KO cells were seeded at 5×10^3 cells/well. The following day, each compound, or DMSO vehicle alone, was added to the indicated final concentrations. Fresh medium and compound were added every 3–4 days. Cells were trypsinized and manually counted at the indicated times. […] For in vivo assays, Rat1a-c-Myc cells were grown to approximately 50% confluency. Fresh medium plus the indicated compounds, or DMSO vehicle alone, were then added to cells for an additional 3 days. At the end of this time, none of the cultures contained fewer than […] apoptotic cells as determined by trypan blue staining and TUNEL assays. The cells were then washed twice in PBS, trypsinized and resuspended in a minimal volume of fresh medium containing the same concentration of compound. In total, 2×10^7 cells were then inoculated subcutaneously into the flanks of nude mice (five animals per group) and no additional compound was administered for the duration of the experiment. Tumor growth was monitored weekly and the average tumor volume ([…].) was calculated as previously described (Yin X. Y., Grove E., Rogulski K. and Prochownik E. V., (2002), J. Biol. Chem., 277:19998–20010).
Rat1a-c-Myc cells form rapidly growing tumors in nude mice (Yin et al., 1999b). […] Rat1a-c-Myc cells were therefore exposed to the indicated Myc-Max-specific compounds for 3 days at the concentrations shown in FIG. 4. […] These cells were then inoculated into nude mice and monitored for tumor formation. Rat1a-c-Myc cells that had been incubated for 3 days in DMSO vehicle only served as a positive control.
Rat1a-c-Myc cells were exposed to the indicated Myc-Max-specific compounds for 3 days at the concentrations shown in FIG. 4, and then inoculated subcutaneously into the flanks of nude mice (five animals per group). Based on trypan blue staining, >95% of the inoculated cells were viable at the time of inoculation. Tumor growth was monitored and recorded weekly. Each point indicates the average tumor volume among the groups ±1 s.e.

As to `O=[N+]([O-])c1ccc(CCNC2CC3CCC2C3)cc1` (stereo not shown) [#10009, bicyclo[2.2.1]hept-2-yl-[2-(4-nitro-phenyl)-ethyl]-amine], in the test on Rat1a-c-Myc cells [1], the “% of cells in G0/G1” value came out at 66.3%, the “% of cells in G2/M” value came to 10.6% and the “% of cells in S” value came out at 23.1%. For the same compound, the “inhibition of in vivo tumor growth” value in the test with Rat1a-c-Myc cells [2] is recorded as “inhibition of in vivo tumor growth”.
Take `CCCOc1ccc(N2C(=O)CC(N3CCC(C(=O)O)CC3)C2=O)cc1` (stereo not shown) [#10031, 1-[2,5-dioxo-1-(4-propoxy-phenyl)-pyrrolidin-3-yl]-piperidine-4-carboxylic acid]: in the test with Rat1a-c-Myc cells [1], the “% of cells in G0/G1” value came to 60.9%, the “% of cells in G2/M” value came to 5.2% and the “% of cells in S” value worked out at 33.9%.
Consider `Cc1ccc2c(c1)C(=NNc1nc(C)c(C(=O)Nc3cccc([N+](=O)[O-])c3)s1)CC(c1ccccc1)O2` (stereo not shown) [#10050, 4-methyl-2-[N′-(6-methyl-2-phenyl-chroman-4-ylidene)-hydrazino]-thiazole-5-carboxylic acid (3-nitrophenyl)-amide], for which, in the test on Rat1a-c-Myc cells [1], the “% of cells in G0/G1” value was determined as 58.7%, the “% of cells in G2/M” value was found to be 11.7% and the “% of cells in S” value was found to be 29.6%. Also, the “inhibition of in vivo tumor growth” value in the test on Rat1a-c-Myc cells [2] is given as “inhibition of in vivo tumor growth”.
`CCc1ccc(C=C2SC(=S)NC2=O)cc1` [#10058, 5-(4-ethyl-benzylidene)-2-thioxothiazolidin-4-one]: in the test with Rat1a-c-Myc cells [1], the “% of cells in G0/G1” value is recorded as 62.6%, the “% of cells in G2/M” value was found to be 13.7% and the “% of cells in S” value is 23.7%. The “inhibition of in vivo tumor growth” value in the test on Rat1a-c-Myc cells [2] is “inhibition of in vivo tumor growth”.
`O=C1CSC(=O)N1CC(O)Cn1c2ccc(Cl)cc2c2cc(Cl)ccc21` (stereo not shown) [#10074A4, 3-[3-(3,6-dichloro-carbazol-9-yl)-2-hydroxy-propyl]-thiazolidine-2,4-dione]: in the test with Rat1a-c-Myc cells [1], the “% of cells in G0/G1” value came out at 68.7%, the “% of cells in G2/M” value is reported as 9.8% and the “% of cells in S” value was 21.5%. Further, the “inhibition of in vivo tumor growth” value in the test on Rat1a-c-Myc cells [2] was “inhibition of in vivo tumor growth”.
In the case of `O=[N+]([O-])c1ccc(Nc2ccccc2-c2ccccc2)c2nonc12` [#10074G4, biphenyl-2-yl-(7-nitro-benzo[1,2,5]oxadiazol-4-yl)-amine], in the test on Rat1a-c-Myc cells [1], the “% of cells in G0/G1” value amounted to 53.9%, the “% of cells in G2/M” value amounted to 7.4% and the “% of cells in S” value is on record as 38.7%.
Turning to `CCN(CC)C1CC(=O)N(c2cccc(Cl)c2)C1=O` (stereo not shown) [#10075, 1-(3-Chloro-phenyl)-3-diethylamino-pyrrolidine-2,5-dione], in the test with Rat1a-c-Myc cells [1], the “% of cells in G0/G1” value came to 65.1%, the “% of cells in G2/M” value is on record as 10.7% and the “% of cells in S” value came out at 24.2%.
